Target: T1, Met kinase domain (GST fusion protein) (Homo sapiens, UniProt P08581)
T1 construct: Purified GST fusion protein containing the Met kinase domain
Assay: Met transphosphorylation assay (ELISA, poly(glu-tyr) substrate);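 note: Cell-free ELISA with plate-bound poly(Glu:Tyr 4:1) phosphorylated by GST-fused Met kinase domain plus ATP and Mn2+, phosphotyrosine detected by anti-phosphotyrosine antibody with HRP and ABTS read-out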
Assay type: biochemical
Settings: read-out: Met IC50

T1 sequence (P08581 1078-1345 limits assumed): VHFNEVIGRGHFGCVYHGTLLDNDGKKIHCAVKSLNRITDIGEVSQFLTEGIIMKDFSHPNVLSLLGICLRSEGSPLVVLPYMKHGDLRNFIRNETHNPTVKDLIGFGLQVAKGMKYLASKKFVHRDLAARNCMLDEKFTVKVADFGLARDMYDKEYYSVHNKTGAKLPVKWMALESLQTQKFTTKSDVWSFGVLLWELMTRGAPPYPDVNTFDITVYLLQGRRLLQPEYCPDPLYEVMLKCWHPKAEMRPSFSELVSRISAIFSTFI

Compound	IC50 [nM]
CC(Oc1cc(-c2cccc(C(=O)N3CCC(N4CCCC4)CC3)c2)cnc1N)c1c(Cl)ccc(F)c1Cl (stereo not shown) [II-139, (3-{6-Amino-5-[1-(2,6-dichloro-3-fluoro-phenyl)-ethoxy]-pyridin-3-yl}-phenyl)-(4-pyrrolidin-1-yl-piperidin-1-yl)-methanone]	71
CCN(CC)CCS(=O)(=O)Nc1ccc(-c2cnc(N)c(OC(C)c3c(Cl)ccc(F)c3Cl)n2)cc1 (stereo not shown) [II-140, 2-Diethylamino-ethanesulfonic acid (4-{5-amino-6-[1-(2,6-dichloro-3-fluoro-phenyl)-ethoxy]-pyrazin-2-yl}-phenyl)-amide]	350
CC(Oc1nc(-c2ccc(NS(=O)(=O)CCN3CCC(O)CC3)cc2)cnc1N)c1c(Cl)ccc(F)c1Cl (stereo not shown) [II-141, 2-(4-Hydroxy-piperidin-1-yl)-ethanesulfonic acid (4-{5-amino-6-[1-(2,6-dichloro-3-fluoro-phenyl)-ethoxy]-pyrazin-2-yl}-phenyl)-amide]	210
CC(Oc1nc(-c2ccc(NS(=O)(=O)CCN(C)C)cc2)cnc1N)c1c(Cl)ccc(F)c1Cl (stereo not shown) [II-142, 2-Dimethylamino-ethanesulfonic acid (4-{5-amino-6-[1-(2,6-dichloro-3-fluoro-phenyl)-ethoxy]-pyrazin-2-yl}-phenyl)-amide]	220
CC(Oc1nc(-c2ccc(NS(=O)(=O)CCN3CC[C@@H](O)C3)cc2)cnc1N)c1c(Cl)ccc(F)c1Cl (stereo partly drawn) [II-143, 2-((R)-3-Hydroxy-pyrrolidin-1-yl)-ethanesulfonic acid (4-{5-amino-6-[1-(2,6-dichloro-3-fluoro-phenyl)-ethoxy]-pyrazin-2-yl}-phenyl)-amide]	190
CC(Oc1nc(-c2ccc(NS(=O)(=O)CCN3CCCC3)cc2)cnc1N)c1c(Cl)ccc(F)c1Cl (stereo not shown) [II-144, 2-Pyrrolidin-1-ylethanesulfonic acid (4-{5-amino-6-[1-(2,6-dichloro-3-fluoro-phenyl)-ethoxy]-pyrazin-2-yl}-phenyl)-amide]	360
CC(Oc1nc(-c2ccc(C(=O)O)cc2)cnc1N)c1c(Cl)ccc(F)c1Cl (stereo not shown) [II-145, 4-{5-Amino-6-[1-(2,6-dichloro-3-fluoro-phenyl)-ethoxy)-pyrazin-2-yl)benzoic acid]	1560
CC(Oc1nc(-c2ccc(C(=O)NC[C@@H](O)CN3CCCC3)cc2)cnc1N)c1c(Cl)ccc(F)c1Cl (stereo partly drawn) [II-146, 4-{5-Amino-6-[1-(2,6-dichloro-3-fluoro-phenyl)-ethoxy]-pyrazin-2-yl}-N-((R)-2-hydroxy-3-pyrrolidin-1-yl-propyl)-benzamide]	150
CC(Oc1nc(-c2ccc(C(=O)N3CCC(NC4CC4)CC3)cc2)cnc1N)c1c(Cl)ccc(F)c1Cl (stereo not shown) [II-147, (4-{5-Amino-6-[1-(2,6-dichloro-3-fluoro-phenyl)-ethoxy]-pyrazin-2-yl}-phenyl)-(4-cyclopropylamino-piperidin-1-yl)-methanone]	130
CC(Oc1nc(-c2ccc(C(=O)NC[C@H](O)CN3CCCC3)cc2)cnc1N)c1c(Cl)ccc(F)c1Cl (stereo partly shown) [II-148]	120
CC(Oc1nc(-c2ccc(C(=O)NC[C@@H](O)CN3CCOCC3)cc2)cnc1N)c1c(Cl)ccc(F)c1Cl (stereo partly drawn) [II-149, 4-{5-Amino-6-[1-(2,6-dichloro-3-fluoro-phenyl)-ethoxy]-pyrazin-2-yl}-N-((R)-2-hydroxy-3-morpholin-4-yl-propyl)-benzamide]	130
CC(Oc1nc(-c2ccc(C(=O)NC3CCN(C)CC3)cc2)cnc1N)c1c(Cl)ccc(F)c1Cl (stereo not shown) [II-150, 4-{5-Amino-6-[1-(2,6-dichloro-3-fluoro-phenyl)-ethoxy]-pyrazin-2-yl}-N-(1-methyl-piperidin-4-yl)-benzamide]	68
CC(Oc1nc(-c2ccc(C(=O)N3CCC[C@H]3CN3CCCC3)cc2)cnc1N)c1c(Cl)ccc(F)c1Cl (stereo partly drawn) [II-151, (4-{5-Amino-6-[1-(2,6-dichloro-3-fluoro-phenyl)-ethoxy]-pyrazin-2-yl}-phenyl)-((S)-2-pyrrolidin-1-ylmethyl-pyrrolidin-1-yl)-methanone]	180
CC(Oc1nc(-c2ccc(C(=O)N3CCC(N4CCCC4)CC3)cc2)cnc1N)c1c(Cl)ccc(F)c1Cl (stereo not shown) [II-152, (4-{5-Amino-6-[1-(2,6-dichloro-3-fluoro-phenyl)-ethoxy]-pyrazin-2-yl}-phenyl)-(4-pyrrolidin-1-yl-piperidin-1-yl)-methanone]	110
CC(Oc1nc(-c2ccc(C(=O)NCCN3CCOCC3)cc2)cnc1N)c1c(Cl)ccc(F)c1Cl (stereo not shown) [II-153, 4-{5-Amino-6-[1-(2,6-dichloro-3-fluoro-phenyl)-ethoxy]-pyrazin-2-yl}-N-(2-morpholin-4-yl-ethyl)-benzamide]	102
CC(Oc1nc(-c2ccc(C(=O)N3CCN(C)CC3)cc2)cnc1N)c1c(Cl)ccc(F)c1Cl (stereo not shown) [II-154, (4-{5-Amino-6-[1-(2,6-dichloro-3-fluoro-phenyl)-ethoxy]-pyrazin-2-yl}-phenyl)-(4-methyl-piperazin-1-yl)-methanone]	160
CC(Oc1nc(-c2ccc(C(=O)N3C[C@@H](C)N[C@@H](C)C3)cc2)cnc1N)c1c(Cl)ccc(F)c1Cl (stereo partly drawn) [II-155, (4-{5-Amino-6-[1-(2,6-dichloro-3-fluoro-phenyl)-ethoxy]-pyrazin-2-yl}-phenyl)-((3R,5S)-3,5-dimethyl-piperazin-1-yl)-methanone]	95

Compound	IC50 [nM]
CC(Oc1nc(-c2ccc(C(=O)N3CCC(N4CCCC4)CC3)cc2)cnc1N)c1c(Cl)cccc1Cl (stereo not shown) [II-157, (4-{5-Amino-6-[1-(2,6-dichloro-phenyl)-ethoxy]-pyrazin-2-yl}-phenyl)-(4-pyrrolidin-1-yl-piperidin-1-yl)-methanone]	160
CC(Oc1nc(-c2ccc(C(=O)NCCN3CCOCC3)cc2)cnc1N)c1c(Cl)cccc1Cl (stereo not shown) [II-158, 4-{5-Amino-6-[1-(2,6-dichloro-phenyl)-ethoxy]-pyrazin-2-yl}-N-(2-morpholin-4-yl-ethyl)-benzamide]	320
CC(Oc1nc(-c2ccc(C(=O)N3C[C@@H](C)N[C@@H](C)C3)cc2)cnc1N)c1c(Cl)cccc1Cl (stereo partly drawn) [II-159, (4-{5-Amino-6-[1-(2,6-dichloro-phenyl)-ethoxy]-pyrazin-2-yl}-phenyl)-((3R,5S)-3,5-dimethyl-piperazin-1-yl)-methanone]	140
CC(Oc1nc(-c2ccc(C(=O)NC3CCN(C)CC3)cc2)cnc1N)c1c(Cl)cccc1Cl (stereo not shown) [II-160, 4-{5-Amino-6-[1-(2,6-dichloro-phenyl)-ethoxy]-pyrazin-2-yl}-N-(1-methyl-piperidin-4-yl)-benzamide]	120
CC(Oc1nc(-c2ccc(C(=O)N3CCC[C@@H]3CN3CCCC3)cc2)cnc1N)c1c(Cl)cccc1Cl (stereo partly drawn) [II-161, (4-{5-Amino-6-[1-(2,6-dichloro-phenyl)-ethoxy]-pyrazin-2-yl}-phenyl)-((R)-2-pyrrolidin-1-ylmethyl-pyrrolidin-1-yl)-methanone]	160
CC(Oc1nc(-c2ccc(C(=O)N3CCC[C@H]3CN3CCCC3)cc2)cnc1N)c1c(Cl)cccc1Cl (stereo partly drawn) [II-162, (4-{5-Amino-6-[1-(2,6-dichloro-phenyl)-ethoxy]-pyrazin-2-yl}-phenyl)-((S)-2-pyrrolidin-1-ylmethyl-pyrrolidin-1-yl)-methanone]	140
CC(Oc1nc(-c2ccc(C(=O)N3CCN(C)CC3)cc2)cnc1N)c1c(Cl)cccc1Cl (stereo not shown) [II-163, (4-{5-Amino-6-[1-(2,6-dichloro-phenyl)-ethoxy]-pyrazin-2-yl}-phenyl)-(4-methyl-piperazin-1-yl)-methanone]	150
CC(Oc1nc(-c2ccc(C(=O)N3CC[C@@H](N)C3)cc2)cnc1N)c1c(Cl)cccc1Cl (stereo partly drawn) [II-164, (4-{5-Amino-6-[1-(2,6-dichloro-phenyl)-ethoxy]-pyrazin-2-yl}-phenyl)-((R)-3-aminopyrrolidin-1-yl)-methanone]	150
CC(Oc1nc(-c2ccc(C(=O)N3CC[C@H](N)C3)cc2)cnc1N)c1c(Cl)cccc1Cl (stereo partly drawn) [II-165, (4-{5-Amino-6-[1-(2,6-dichloro-phenyl)-ethoxy]-pyrazin-2-yl}-phenyl)-((S)-3-aminopyrrolidin-1-yl)-methanone hydrogen chloride]	100
CC(Oc1nc(-c2ccc(C(=O)NCCN3CCCC3)cc2)cnc1N)c1c(Cl)cccc1Cl (stereo not shown) [II-166, 4-{5-Amino-6-[1-(2,6-dichloro-phenyl)-ethoxy]-pyrazin-2-yl}-N-(2-pyrrolidin-1-yl-ethyl)-benzamide]	110
CC(Oc1nc(-c2ccc(C(=O)NCCCN3CCCC3)cc2)cnc1N)c1c(Cl)cccc1Cl (stereo not shown) [II-167, 4-{5-Amino-6-[1-(2,6-dichloro-phenyl)-ethoxy]-pyrazin-2-yl}-N-(3-pyrrolidin-1-yl-propyl)-benzamide]	220
CC(Oc1nc(-c2cccc(C(=O)NC3CCN(C)CC3)c2)cnc1N)c1c(Cl)cccc1Cl (stereo not shown) [II-169, 3-{5-Amino-6-[1-(2,6-dichloro-phenyl)-ethoxy)-pyrazin-2-yl}-N-(1-methyl-piperidin-4-yl)-benzamide]	180
CC(Oc1nc(-c2cccc(C(=O)NCCN3CCCC3)c2)cnc1N)c1c(Cl)cccc1Cl (stereo not shown) [II-170, 3-{5-Amino-6-[1-(2,6-dichloro-phenyl)-ethoxy]-pyrazin-2-yl}-N-(2-pyrrolidin-1-yl-ethyl)-benzamide]	330
CC(Oc1nc(-c2cccc(C(=O)N3C[C@@H](C)N[C@@H](C)C3)c2)cnc1N)c1c(Cl)cccc1Cl (stereo partly drawn) [II-171, (3-{5-Amino-6-[1-(2,6-dichloro-phenyl)-ethoxy]-pyrazin-2-yl}-phenyl)-((3R,5S)-3,5-dimethyl-piperazin-1-yl)-methanone]	360
CC(Oc1nc(-c2cccc(C(=O)NCCN3CCOCC3)c2)cnc1N)c1c(Cl)cccc1Cl (stereo not shown) [II-172, 3-{5-Amino-6-[1-(2,6-dichloro-phenyl)-ethoxy]-pyrazin-2-yl}-N-(2-morpholin-4-yl-ethyl)-benzamide]	480
CC(Oc1nc(-c2cccc(C(=O)N3CCC[C@H]3CN3CCCC3)c2)cnc1N)c1c(Cl)cccc1Cl (stereo partly drawn) [II-173, (3-{5-Amino-6-[1-(2,6-dichloro-phenyl)-ethoxy]-pyrazin-2-yl}-phenyl)-((S)-2-pyrrolidin-1-ylmethyl-pyrrolidin-1-yl)-methanone]	180
CC(Oc1nc(-c2cccc(C(=O)N3CCC(N4CCCC4)CC3)c2)cnc1N)c1c(Cl)cccc1Cl (stereo not shown) [II-174, (3-{5-Amino-6-[1-(2,6-dichloro-phenyl)-ethoxy]-pyrazin-2-yl}-phenyl)-(4-pyrrolidin-1-yl-piperidin-1-yl)-methanone]	170

— patent US20050009840A1 (SUGEN, INC., priority 2003, published 2005)
